Measurements from paper PMC5830302 (ACS chemical biology, 2017).

Molecular target: ClbQ (Escherichia coli, UniProt Q0P7K7)
Test: DTNB-based continuous spectrophotometric thioesterase assay
Assay type: biochemical
Conditions: 100 mM Tris HCl, pH 7.4, 20 mM NaCl, 100 uM DTNB, 100 nM ClbQ, 37 °C

| SMILES | DTNB-based continuous spectrophotometric thioesterase assay (412 nm) |
| --- | --- |
| CC(=O)NCCSC(C)=O [acetyl-SNAC] | ClbQ has thioesterase activity with model straight-chain acyl-SNACs |
| CCCCCCCCCCCCCC(=O)SCCNC(C)=O [myristoyl-SNAC] | ClbQ has thioesterase activity with model straight-chain acyl-SNACs |
